Reference: patent US20250140406A1, “CLASSIFYING TUMORS AND PREDICTING RESPONSIVENESS” (Oncocyte Corporation, priority 2022, published 2025)

Key:
[1] = test system: cancer cell lines classified IM, MSL, M; assay: PRISM screen compound sensitivity correlated with IM, MSL and M subtype of cell lines (101 gene signature); format: cell-based; details: for IM Corr test: correlation of PRISM compound sensitivity with IM subtype correlation; for M Corr test: correlation of PRISM compound sensitivity with M subtype correlation; for MSL Corr test: correlation of PRISM compound sensitivity with MSL subtype correlation; for TNBCType train: 101 gene signature
[2] = test system: cancer cell lines, DetermaIO classes; assay: Association of PRISM compound sensitivity with DetermaIO (DTIO) cell line classes; format: cell-based
[3] = correlation of PRISM compound sensitivity with DTIO; test cell set
[4] = correlation of PRISM compound sensitivity with DTIO; training cell set
[5] = correlation of PRISM compound sensitivity with DTIO (DetermaIO); test cell set (188 cell lines)
[6] = correlation of PRISM compound sensitivity with DTIO (DetermaIO); training cell set (371 cell lines)

Structure (SMILES)	IM Corr test ([1]; test cell set (188 cell lines))	M Corr test ([1]; test cell set (188 cell lines))	MSL Corr test ([1]; test cell set (188 cell lines))	DTIO Corr test [2, 3]	DTIO Corr train [2, 4]	DTIO Corr test [2, 5]	DTIO Corr train [2, 6]	further results
Cc1cc(-c2cc(O)ccc2Cl)cc2nnc(Nc3ccc(OCCN4CCCC4)cc3)nc12 [TG-100572]	0.01392	−0.05751	−0.04088	0.03221	0.09048	–	–	TNBCType train ([1]; subtype (IM, MSL or M) with which compound sensitivity is negatively correlated, training cell set (371 cell lines)): MSL
Nc1cccc(-c2cc3c(Oc4cccc(O)c4)ncnc3[nH]2)c1 [TWS-119]	−0.02666	0.00573	0.1335	–	–	–	–	DTIO Corr test ([2]; correlation of PRISM compound sensitivity with DTIO; test cell set (188 cell lines)): −0.03964; DTIO Corr train ([2]; correlation of PRISM compound sensitivity with DTIO; training cell set (371 cell lines)): −0.1606
CC(C)C(=O)c1ccc(O)c(O)c1 [U-0521]	−0.0012	0.02749	0.06256	−0.01537	−0.1115	–	–	–
c1ccc(C(NCc2cccnc2)(c2ccccc2)c2ccccc2)cc1 [UCL-2077]	–	–	–	−0.07511	−0.2006	–	–	IM Corr test ([1]; test cell set): −0.1051; M Corr test ([1]; test cell set): 0.08781; MSL Corr test ([1]; test cell set): 0.1128
CCCN(CCC)[C@@H]1CCc2c(OC)cccc2[C@@H]1C [UH-232-(+)]	−0.1006	0.08495	0.1169	–	–	−0.1146	−0.08225	–
CN(C)CCN1C(=O)c2cccc3cc(NC(N)=O)cc(c23)C1=O [UNBS-5162]	–	–	–	0.09148	0.09844	–	–	IM Corr test ([1]; test cell set): 0.1623; M Corr test ([1]; test cell set): −0.2029; MSL Corr test ([1]; test cell set): −0.03433; DTIO Corr test ([2]; correlation of compound sensitivity with DetermaIO (DTIO); test set): 0.09148; DTIO Corr train ([2]; correlation of compound sensitivity with DetermaIO (DTIO); training set): 0.09844
COc1cc2c(NC3CCN(CC4CCCCC4)CC3)nc(N3CCCN(C(C)C)CC3)nc2cc1OCCCN1CCCCC1 [UNC0631]	0.2168	−0.3256	−0.09072	0.163	0.1055	–	–	DTIO Corr test ([2]; correlation of compound sensitivity with DetermaIO (DTIO), test set): 0.163; DTIO Corr train ([2]; correlation of compound sensitivity with DetermaIO (DTIO), training set): 0.1055
COc1cc2c(NC3CCN(C(C)C)CC3)nc(C3CCCCC3)nc2cc1OCCCN1CCCC1 [UNC0638]	−0.1264	0.1332	0.1697	–	–	−0.08839	−0.07586	–
COc1ccc(CN2C(=O)C(=O)c3cc(OC(F)(F)F)ccc32)cc1 [VU0238429]	–	–	–	−0.02333	−0.07773	–	–	IM Corr test ([1]; test cell set): 0.04415; M Corr test ([1]; test cell set): −0.1868; MSL Corr test ([1]; test cell set): −0.1511
Cc1cc(C)c(N(Cc2ccccc2)S(=O)(=O)c2ccc(OCCNC(=O)c3cc4ccccc4o3)cc2)c(C(=O)NO)c1 [WAY-170523]	–	–	–	0.02955	0.0516	–	–	IM Corr test ([1]; test cell set): −0.0044; M Corr test ([1]; test cell set): −0.01887; MSL Corr test ([1]; test cell set): −0.04718; TNBCType train ([1]; subtype (IM, MSL or M) with which PRISM compound sensitivity is negatively correlated, training cell set): MSL
COc1cc2ncnc(Nc3ccc(O)c(Br)c3)c2cc1OC [WHI-P154]	−0.227	0.2466	0.2152	−0.06543	−0.1245	–	–	–
C=CC(=O)Nc1cccc(Sc2nc(Nc3ccc(N4CCN(C)CC4)cc3)ncc2Cl)c1 [WZ8040]	−0.07504	0.1805	0.2895	–	–	0.0423	−0.1387	–
C[C@@H](N)c1ccc(C(=O)Nc2ccnc3[nH]ccc23)cc1 [Y-39983]	0.05616	−0.1022	−0.1761	–	–	−0.02374	−0.00611	–
Cc1cccc(NC(=O)N[C@@H]2N=C(c3ccccc3)c3ccccc3N(CC(=O)c3ccccc3C)C2=O)c1 [YM022]	−0.00497	−0.05702	−0.08788	−0.00858	0.03884	–	–	–
C[C@@H]1CN(Cc2ccc(F)cc2)CCN1C(=O)COc1ccc(Cl)cc1NC(N)=O.Cl [ZK811752]	0.1095	−0.08132	−0.00448	–	–	0.04281	0.09953	–
